Measured values taken from patent US11466047B2, “Cyclic di-nucleotide compounds as sting agonists” (Merck Sharp & Dohme Corp., priority 2017, dated 2022).

How the values were obtained:
[1] = biological target: full-length HAQ STING (Homo sapiens (Human), UniProt Q86WV6, G230A/H232R/R293Q/R71H); test: 3H-cGAMP filtration binding assay (HAQ STING); conditions: competition with tritiated cGAMP ligand, HAQ STING membrane
Text: The ability of compounds to bind STING is quantified by the ability to compete with tritiated cGAMP ligand for human STING receptor membrane using a radioactive filter-binding assay. The binding assay employs STING receptor obtained from Hi-Five cell membranes overexpressing full-length HAQ STING prepared in-house and tritiated cGAMP ligand also purified in-house.
(§1) The ability of compounds to bind STING is quantified by their ability to compete with tritiated cGAMP ligand for human STING receptor membrane using a radioactive filter-binding assay. The binding assay employs STING receptor obtained from Trichoplusia ni cell membranes (T.ni; Expression Systems, cat #94-002F, www.expressionsystems.com) overexpressing full-length HAQ STING and tritiated cGAMP ligand.
The basic HAQ STING filtration assay protocol is as follows:
The compounds were serially titrated by the Hamilton STARPlus CORE in a 96-well plate (Greiner, #651201) using a 1:3 ten-point dose response format. After compound preparation, a 2.2 ug/ml working concentration of STING membrane (SEQ. ID. No. 1) was prepared by diluting concentrated membrane into assay buffer (lx PBS; Invitrogen #SH30028.02) and douncing 7× using a manual tissue homogenizer (Wheaton, #357546). 148 uL of prepared membrane was then manually added to each well of a 96-well deep-well polypropylene plate (Fisher Scientific, #12-566-121). Following membrane addition, 2 uL of either titrated test compound, DMSO control (Sigma #276855), or cold cGAMP control was added to the appropriate wells using a BIOMEK FX. Compound and membrane then preincubated for 60 min at RT to allow compound binding to equilibrate. Following equilibration, 8 nM of [^3H]c-GAMP ligand was prepared by diluting into assay buffer, and 50 uL of this working stock was then manually added to each well of the assay plate. Plates were then incubated at RT for 60 min, and the contents of each assay plate were then filtered through a 96-well GF/B filter plate (PerkinElmer, #6005250) using a TOMTEC MACH III Cell Harvester equipped with 20 mM HEPES buffer (Fisher Scientific, #BP299500). The filter plates were then dried at 55° C. for 30 min using a pressurized oven before 30 uL of ULTIMA GOLD F scintillate was added to each well. Tritium levels for each reaction well were then measured using a PerkinElmer TopCount plate reader.
(§2) After normalization to controls, the percent activity for each compound concentration was calculated by measuring the amount of remaining radioactivity. The plot of percent activity versus the log of compound concentration was fit with a 4-parameter dose response equation to calculate EC50 values.

[2] = biological target: full-length WT STING (Homo sapiens (Human), UniProt Q86WV6, H232R); test: 3H-cGAMP filtration binding assay (WT STING); conditions: competition with tritiated cGAMP ligand, WT STING membrane; read-out: EC50
Chain of full-length WT STING (Q86WV6 whole entry, looked up, stated change not applied): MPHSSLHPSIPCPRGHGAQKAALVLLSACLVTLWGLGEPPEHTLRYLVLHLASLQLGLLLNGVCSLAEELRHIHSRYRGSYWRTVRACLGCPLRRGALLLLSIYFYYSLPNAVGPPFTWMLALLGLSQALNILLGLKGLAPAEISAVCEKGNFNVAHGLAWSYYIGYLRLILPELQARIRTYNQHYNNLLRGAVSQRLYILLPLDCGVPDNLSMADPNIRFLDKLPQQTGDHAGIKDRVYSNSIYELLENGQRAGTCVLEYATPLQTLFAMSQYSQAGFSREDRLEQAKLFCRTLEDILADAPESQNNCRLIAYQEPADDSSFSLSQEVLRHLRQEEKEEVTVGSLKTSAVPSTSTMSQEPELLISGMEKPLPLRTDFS
Protocol: as §1, with “#94-002F,” for “#94-002F, www.expressionsystems.com)”, “WT” for “HAQ”
The basic WT STING filtration assay protocol is as follows:
16 nM of [^3H] c-GAMP ligand was prepared by diluting into assay buffer, and 50 uL of this working stock was manually added to each well of the assay plate. After ligand addition, 2 uL of either titrated test compound, DMSO control (Sigma #276855), or cold cGAMP control was added to the appropriate wells using a BIOMEK FX. The serially titrated compound was prepared on a Hamilton STARPlus CORE in a 96-well plate (Greiner, #651201) using a 1:3 ten-point dose response format. Following compound addition, a 2.2 ug/ml working concentration of STING membrane (SEQ. ID. No. 3) was prepared by diluting concentrated membrane into assay buffer (1×PBS; Invitrogen #SH30028.02) and douncing 7× using a manual tissue homogenizer (Wheaton, #357546). 148 uL of this prepared membrane was then manually added to each well of a 96-well deep-well polypropylene plate (Fisher Scientific, #12-566-121). Compound, ligand, and membrane then incubated for 60 min at RT before the contents of each assay plate were filtered through a 96-well GF/B filter plate (PerkinElmer, #6005250) using a TOMTEC MACH III Cell Harvester equipped with 20 mM HEPES buffer (Fisher Scientific, #BP299500). The filter plates were then dried at 55° C. for 30 min using a pressurized VWR oven before 30 uL of ULTIMA GOLD F scintillate was added to each well. Tritium levels for each reaction well were then measured using a PerkinElmer TopCount plate reader.
as §2

[3] = test system: THP1 cells; test: IFN-β secretion in THP1 cell culture (5 h); type: cell-based, human; conditions: Homo sapiens, THP-1, 5 h, 30 μM compound, relative to 2′3′-cGAMP at 30 μM, read-out: % Effect at 30 μM relative to 2′3′-cGAMP
Protocol: The ability of compounds to stimulate the secretion of interferon-beta from THP1 cells was measured using a human IFN-β AlphaLISA kit (Perkin Elmer, Cat. No. AL265F). The basic protocol is as follows:
A Labcyte Echo 550 acoustic dispenser was used to transfer 120 nL of compound dissolved in DMSO into the wells of an empty, sterile 384-well microplate, (Corning, Cat. No. 3712). THP1 cells (American Type Culture Collection, Cat. No. TIB202) previously frozen in Recovery Medium (Life Technologies, Cat. No. 12648-010) were thawed and immediately diluted 10-fold into 37° C. assay medium (RPMI 1640+L-Glutamine & phenol red, Life Technologies, Cat. No. 11875-085; 0.5% heat inactivated fetal bovine serum, Sigma Aldrich, Cat. No. F4135; 1 mM Sodium Pyruvate, Life Technologies, Cat. No. 11360-070; lx non-essential amino acids; Life Technologies, Cat. No. 11140-050). The cell viability and count was ascertained using a Beckman Coulter V-Cell XR cell counter. The cell suspension was centrifuged at 200×g for 5 min at RT. Cells were resuspended to a density of 0.8×10^6/mL in 37° C. assay medium. Subsequent liquid transfers were performed using either a Matrix electronic multichannel pipette or an Agilent Bravo Automated Liquid Handling Platform.
The assay was started by dispensing 40 μL of the previously prepared cell suspension into the wells of the plate containing compounds. After 5 h incubation at 37° C., 5% CO2 in a humidified atmosphere, the plate of cells and compounds was centrifuged at 200×g for 5 min at RT. From each well, 5 μL of supernatant was transferred into corresponding wells of a white 384-well plate (Perkin Elmer, Cat. No. 6005620). To these supernatant-containing wells was added 10 μL of 5× Anti-Analyte Acceptor beads (50 μg/mL of AlphaLISA HiBlock Buffer) and incubated for 30 min at RT while shaking on an orbital plate shaker. To each well was added 10 μL of 5× Biotinylated Antibody Anti-analyte (5 nM in AlphaLISA HiBlock Buffer) and incubated on an orbital plate shaker for 60 min at RT or overnight at 4° C. To each well was added 25 μL of 2×SA-Donor beads (80 μg/mL in AlphaLISA HiBlock Buffer) and incubated for 30-45 min at RT in the dark while shaking on an orbital plate shaker. The plate was then read on a Perkin Elmer Envision (λex=680 nm, λem=570 nm). The percent effect of the AlphaLISA signal at each compound concentration was calculated based on 30 uM cGAMP positive controls and 0.3% DMSO negative controls. The plot of percent effect versus the log of compound concentration was fit with a 4-parameter concentration response equation to calculate EC50 values. The test compounds were tested at concentrations 30000, 10000, 3333, 1111, 370.4, 123.4, 41.2, 13.7, 4.6, and 1.5 nM with 0.3% residual DMSO. The control compound, cGAMP was tested at concentrations 100000, 33333, 11111, 3704, 1235, 412, 137, 46, and 15 nM with 0.3% residual DMSO.
Compounds of the disclosure were evaluated for IFN-β secretion in THP1 cell culture as described above. The following table tabulates the biological data for these compounds as percent activation relative to 2′3′-cGAMP at the 30 μM concentration.

Chain of full-length HAQ STING (Q86WV6 whole entry, looked up, stated change not applied): as above

Row | SMILES | EC50 [1] [nM] | EC50 [2] [nM] | activation at 30 µM [3] [%]
1 | Nc1nc2c(ncn2[C@@H]2S[C@@H]3COP(=S)(S)O[C@H]4[C@H](F)[C@H](n5cnc6c(N)ncnc65)O[C@@H]4COP(O)(=S)O[C@@H]2[C@@H]3O)c(=O)[nH]1 (stereo partly drawn) [Example 16, 2-amino-9-[(5R,7R,8R,12aR,14R,15S,15aR,16S)-14-(6-amino-9H-purin-9-yl)-15-fluoro-10,16-dihydroxy-2-sulfanyl-2,10-disulfidooctahydro-12H-5,8-methanofuro[3,2-l][1,3,9,11,6,2,10]tetraoxathiadiphosphacyclotetradecin-7-yl]-1,9-dihydro-6H-purin-6-one] | 5 | 18 | 107
2 | Nc1nc2c(ncn2[C@@H]2S[C@@H]3COP(=S)(S)O[C@H]4[C@H](F)[C@H](n5cnc6c(N)ncnc65)O[C@@H]4COP(=O)(O)O[C@@H]2[C@@H]3O)c(=O)[nH]1 (stereo partly drawn) [Example 20, 2-amino-9-[(5R,7R,8R,12aR,14R,15S,15aR,16S)-14-(6-amino-9H-purin-9-yl)-15-fluoro-10,16-dihydroxy-10-oxido-2-sulfanyl-2-sulfidooctahydro-12H-5,8-methanofuro[3,2-l][1,3,9,11,6,2,10]tetraoxathiadiphosphacyclotetradecin-7-yl]-1,9-dihydro-6H-purin-6-one] | 1 | 3 | 137
3 | Nc1nc2c(ncn2[C@@H]2S[C@@H]3COP(=S)(S)O[C@H]4[C@H]5OC[C@]4(COP(=O)(O)O[C@@H]2[C@@H]3O)O[C@H]5n2cnc3c(N)ncnc32)c(=O)[nH]1 (stereo partly drawn) [Example 21, 2-amino-9-[(5R,7R,8R,12aR,14R,15R, 15aS,18S)-14-(6-amino-9H-purin-9-yl)-10,18-dihydroxy-10-oxido-2-sulfanyl-2-sulfidohexahydro-14H-15,12a-(epoxymethano)-5,8-methanofuro[3,2-1][1,3,9,11,6,2,10]tetraoxathiadiphosphacyclotetradecin-7(12H)-yl]-1,9-dihydro-6H-purin-6-one] | 217 | 1550 | 45
